Test results: patent publication US12471620B2, “Use of isothiocyanate in smokeless tobacco products” (Gamot Global Pte. Ltd., priority 2019, dated 2025)

System: A549 cells
Assay: CellEvent Caspase 3/7 green detection assay of apoptosis, brightfield and fluorescent imaging
Type: cell-based, human
Details: for concentration at which exponentially more cells undergo apoptosis than at lower concentrations: at 48 hours (AITC, combinations) or earlier than at lower concentrations; for induction of cell death (apoptosis): daily treatment, imaged at 24 to 96 hours (combinations up to 72 hours)
Description: A549 cells were plated into 48 well culture plates at a density of 3.0×10^4 cells/cm^2. Cells were dissociated with 0.05% trypsin EDTA following a 5-minute incubation at 37° C., neutralized in a 1:1 ratio of standard medium and counted using a hemocytometer prior to plating. All wells were settled overnight prior to addition of one of the following treatment compounds: AITC, PEITC, Thymoquinone, or Resveratrol. All treatments were performed within 24 hours following initial plating.
Treatment of the A549 cells occurred at the following time points and concentrations: AITC—25 μM, 50 μM and 100 μM for 24, 48 and 96 hours. PEITC—25 μM, 50 μM, 100 μM and 200 μM for 24, 48 and 96 hours. TQ—25 μM, 50 μM, 10 0 μM and 200 μM for 24, 48 and 96 hours. Resveratrol—25 μM, 50 μM and 100 μM for 48 and 96 hours. DMSO was used to dissolve each compound, and cells treated with DMSO without any of tested compounds served as a control. Treated cells received daily treatments using the same concentrations until the last time point of the experiment.
Apoptosis was detected using the CellEvent Caspase 3/7 green detection kit/assay from Thermofisher Scientific. Cells were incubated with diluted assay reagent for 30 minutes at 37° C. prior to analysis, and imaged by a brightfield and a fluorescent microscopes.
CellEvent Caspase-3/7 Green Detection Reagent is intrinsically non-fluorescent, as the four amino acid peptide (DEVD peptide) inhibits the ability of the dye to bind to DNA. However, following activation of caspase-3/7 in apoptotic cells, the DEVD peptide is cleaved, enabling the dye to bind to DNA and produce a bright, fluorogenic response. The fluorescent emission of the dye ˜530 can be observed under a fluorescent microscope.

Row | Structure (SMILES) | concentration at which exponentially more cells undergo apoptosis than at lower concentrations [µM] | induction of cell death (apoptosis) | apoptotic effect at 25 μM relative to higher concentrations (25 μM) | onset of apoptotic effects (effects only observed at 48 and 96 hours)
1 | C=CCN=C=S [AITC, Allyl Isothiocyanate] | ≥ 50 | induces cancer cell death | – | –
2 | Oc1ccc(C=Cc2cc(O)cc(O)c2)cc1 [Resveratrol] | ≥ 50 | induces cell death | reduced | delayed relative to other compounds
3 | CC1=CC(=O)C(C(C)C)=CC1=O [Thymoquinone] | ≥ 100 | induces cell death | – | –
